Test results taken from patent US5595999A, “Guanidine derivatives” (Hoffmann-La Roche Inc., priority 1990, dated 1997).

Columns and labels:
[1] = Toxicity in mice upon intravenous administration; details: mouse, in vivo
Method: The guanidines of formula I have a low toxicity. Thus, the products of Example 8, 13a, 14i and 18f have an LD50 of 30-50mg/kg in mice upon intravenous administration.

[2] = molecular target: human thrombin (Homo sapiens, UniProt P00734); assay: Inhibition of amidolytic activity of thrombin (chromogenic substrate S-2238); assay type: biochemical; details: human thrombin 0.5 nM final conc., S-2238, pH 7.8, room temperature
Method: (§1) A differential inhibition of thrombin and other serine proteases by the above compounds is desirable in order to obtain compounds having as high a specificity as possible and at the same time to avoid possible side-effects.
(§2) Specific chromogenic peptide substrates can be used to determine the inhibition of the catalytic activity of the above proteases. The inhibition of the amidolytic activity of thrombin and trypsin by the above guanidines was determined as described hereinafter.
(§3) The measurements were carried out on microtiter plates at room temperature. For this, in each well of the plate 150 μl of buffer (50 mM Tris, 100 mM NaCl, 0.1% polyethylene glycol; pH 7.8) were mixed with 50 μl of the inhibitor dissolved in DMSO and diluted in the buffer, and 25 μl of human thrombin (0.5 nM final conc.) were added. After incubation for 10 minutes, the reaction was started by the addition of chromogenic substrate S-2238 (H-D-Phe-Pip-Arg-paranitroaniline from Kabivitrum; 10 or 50 μm final conc.) and the hydrolysis of the substrate was followed spectrophotometrically on a kinetic microliter plate reader for 5 minutes. After graphical presentation of the inhibition curves, the Ki values were determined according to the method described in Biochem. J. 55, 1955, 170-171. The inhibition of trypsin was effected analogously, but using the substrate S-2251 (H-D-Val-Leu-Lys-paranitroaniline) in 200 and 750 μM final concentration.

[3] = molecular target: trypsin; assay: Inhibition of amidolytic activity of trypsin (chromogenic substrate S-2251); assay type: biochemical; details: S-2251, 200 and 750 μM final concentration, pH 7.8, room temperature
Method: as §1, §2, §3

Structure (SMILES)	Ki [2] [nM]	Ki [3] [nM]	LD50 [1] [mg/kg]
N=C(N)N1CCCC(CNC(=O)[C@@H](CN2C(=O)C(=O)c3ccccc32)NS(=O)(=O)c2ccc3ccccc3c2)C1 (some centres unmarked) [Example 8]	8.55	20100	30 to 50
N=C(N)N1CCC[C@@H](COC(=O)[C@@H](Cc2c[nH]c3ccccc23)NS(=O)(=O)c2ccc(I)cc2)C1 [Example 17c, N-(p-Iodophenylsulfonyl)-D-tryptophan (R)-1-amidino-3-piperidinylmethyl ester]	58	10000	–
N=C(N)N1CCCC(CNC(=O)[C@@H](Cc2ccccc2[N+](=O)[O-])NS(=O)(=O)c2ccc3ccccc3c2)C1 (mixture of isomers) [Example 13a, (R)-N-[(RS)-1-Amidino-3-piperidinylmethyl]-α-(2-naphthylsulfonamido)-o-nitrohydrocinnamamide]	20.8	29200	30 to 50
N=C(N)N1CCCC(CNC(=O)[C@@H](CC(=O)c2ccccc2N)NS(=O)(=O)c2ccc3ccccc3c2)C1 (stereo partly drawn) [Example 18f, (R)-N-[(RS)-1-Amidino-3-piperidinylmethyl]-3-(o-aminobenzoyl)-2-(naphthylsulfonamido)propionamide]	16	–	30 to 50
N=C(N)N1CCCC(CNC(=O)[C@@H](Cc2c[nH]c3ccccc23)NS(=O)(=O)c2ccccc2[N+](=O)[O-])C1 (mixture of isomers) [Example 14i, (R)-N-[(RS)-1-Amidino-3-piperidinylmethyl]-α-(o-nitrobenzenesulfonamido)indole-3-propionamide]	25	38000	30 to 50

Continued, in another order:

Ki [2] [nM]	Ki [3] [nM]	Structure (SMILES)	LD50 [1] [mg/kg]
20.7	6300	N=C(N)N1CCC[C@@H](CNC(=O)[C@@H](Cc2c[nH]c3ccccc23)NS(=O)(=O)c2ccc(I)cc2)C1 [Example 17b, (R)-N-[(S)-1-Amidino-3-piperidinylmethyl]-α-(p-iodobenzenesulfonamido)indole-3-propionamide]	–
26.1	14800	N=C(N)N1CCC[C@@H](CNC(=O)[C@@H](Cc2ccc([N+](=O)[O-])cc2)NS(=O)(=O)c2ccc(I)cc2)C1 [Example 17j, (R)-N-[(S)-1-Amidino-3-piperidinylmethyl]-α-(p-iodo-benzenesulfonamido)-p-nitrohydrocinnamamide]	–
41.3	–	N=C(N)N1CCC[C@@H](CNC(=O)[C@@H](Cc2ccc3ccccc3c2)NS(=O)(=O)c2ccc(I)cc2)C1 [Example 17f, (R)-N-[(S)-1-Amidino-3-piperidinylmethyl]-α-(p-iodobenzenesulfonamido)-2-naphthylpropionamide]	–
135	169000	N=C(N)N1CCCC(CNC(=O)[C@@H](Cc2ccccc2)NS(=O)(=O)c2ccc3ccccc3c2)C1 (stereo partly drawn) [Example 9, (R)-N-[(RS)-1-amidino-3-piperidinylmethyl]-α-(2-naphthylsulfonamido)hydrocinnamide]	–
